The values below come from article PMC5458052 (Nature Communications, 2017).

Several values for one entry are separate records, joined by “and”; a condition that tells them apart may be missing. Identical values can stand only once. Like-named read-outs stand apart in the source and are kept apart here.

Series [1] has as its system P. falciparum lab lines FC27 and K1. In words: microbe, parasite or virus in culture. The series is classed as cell-based. Conditions: Plasmodium falciparum, median of 3 independent experiments.
The subject of series [2] is P. vivax clinical field isolates. Put plainly: microbe, parasite or virus in culture. Type of series: cell-based. Conditions: Plasmodium vivax, read-out: Median IC50.
Series [3] concerns P. falciparum clinical field isolates. In words: microbe, parasite or virus in culture. Type of series: cell-based. As to conditions: Plasmodium falciparum, read-out: Median IC50.
The test system of series [4] is P. falciparum strain 3D7A. On the set-up: method as in PMID 22383983. As to conditions: cited from earlier work.
Series [5] has as its system P. falciparum strains (sensitive and resistant). Put plainly: microbe, parasite or virus in culture. Type of series: cell-based. Conditions: Plasmodium falciparum, mean ± SD n=3.
Series [6] can be described thus: In vitro intrinsic clearance, rat liver microsomes (Chem Partners). Type of series: in vitro ADME. Conditions: rat (R) liver microsomes.
The next series has as its system P. falciparum 3D7. Put plainly: In vitro antimalarial activity, drug sensitivity testing (3D7). The series is classed as cell-based. Conditions: Plasmodium falciparum.
Series [7] is described as follows: Rat blood stability in vitro. Conditions: male, Sprague Dawley, freshly collected whole blood.
Series [8] in a line: In vitro intrinsic clearance, human liver microsomes (Chem Partners). The series is classed as in vitro ADME. Conditions: human (H) liver microsomes. In general terms: Liver microsomes are a subcellular fraction often used to study metabolism.
A short description of series [9]: Rat PK iv 1 mg/kg (Chem Partners). Conditions: in vivo.
Another series has as its system P. berghei. Also on record: species or system Plasmodium berghei.
Series [10] is described as follows: Metabolic stability and metabolite profile in mouse liver microsomes. The series is classed as in vitro ADME. As to conditions: for Relative Peak Area (expressed as % total metabolite peak area generated over 60 minutes): metabolite of E209, mouse liver microsomes with NADPH; for Degradation half-life / In vitro CLint / Microsome-Predicted EH: mouse liver microsomes.

Series [11] can be described thus: Metabolic stability and metabolite profile in human liver microsomes. Conditions: for Relative Peak Area (expressed as % total metabolite peak area generated over 60 minutes): metabolite of E209, human liver microsomes with NADPH; for In vitro CLint / Microsome-Predicted EH / Degradation half-life: human liver microsomes.
The nature of series [12]: Metabolic stability and metabolite profile in rat liver microsomes. Type of series: in vitro ADME. As to conditions: for Relative Peak Area (expressed as % total metabolite peak area generated over 60 minutes): metabolite of E209, rat liver microsomes with NADPH; for Degradation half-life / In vitro CLint / Microsome-Predicted EH: rat liver microsomes.
Series [13] in a line: Solubility at 37°C over a 6 hour incubation. As to conditions: free base equivalent. The series is classed as physicochemical.
Where [14] appears, read: 10 × IC50, previous results on standard anti-malarials.

The term IC50 denotes the concentration needed to halve the response being measured. What is called CLint scaled is the capacity of the preparation to metabolise the compound, expressed as a volume cleared per time. What is called half-life is the time in which the quantity being followed falls by half. A high value points to slow loss. The term clearance denotes a measure of how efficiently the substance is removed, as volume per time. Low values mean inefficient removal, high ones efficient removal. Broadly, the Solubility is the dissolved amount per volume that the medium holds.

Turning to `CCN(CC)Cc1cc(Nc2ccnc3cc(Cl)ccc23)ccc1O` [Amodiaquine, amodiaquine], the IC50 in series [1] (K1, FC27 (CQ S) lab line) was found to be 33.1 nM; in [1] (K1, K1 (CQ R) lab line), 39.3 nM; in series [2], 50.6 nM; in [3], 25.6 nM.
Turning to `C[C@@H]1CC[C@H]2[C@@H](C)C(=O)O[C@@H]3O[C@@]4(C)CC[C@@H]1[C@]32OO4` [Artemisinin, artemisinin], in series [4], the Lag phase is on record as 0 h, the “Log PRR” value is recorded as over 4.8, the “PCT 99.9 %” value is given as under 24 h and the Slope is reported as −0.101.
Consider `O=C1C(O)=C([C@H]2CC[C@H](c3ccc(Cl)cc3)CC2)C(=O)c2ccccc21` [Atovaquone, atovaquone], for which, in series [4] (setting [14]), the Lag phase is given as 48 h, the “Log PRR” value is reported as 2.9, the “PCT 99.9 %” value is 81 h and the Slope is reported as −0.060.
On to `CCN(CC)CCCC(C)Nc1ccnc2cc(Cl)ccc12` (stereo not shown) [Chloroquine, chloroquine], for which the IC50 in series [5] (DD2, strain Dd2 (chloroquine resistant)) stood at 150 ± 25.7 nM; in series [5] (HB3, strain HB3 (chloroquine sensitive)), 9 ± 1.5 nM; in [5] (NF54, strain NF54 (chloroquine sensitive)) it was 5.9 ± 1 nM; in [5] (TM90C2B, strain TM90C2B (chloroquine resistant)), 121 ± 20.6 nM; in series [5] (strain 7G8 (chloroquine resistant)), 55 ± 9.4 nM; in [5] (strain D6 (chloroquine sensitive)), 8.6 ± 1.5 nM. The IC50 is 66 ± 11.3 nM in [5] (strain FCB (chloroquine resistant)); 173 ± 29.5 nM in series [5] (strain K1 (chloroquine resistant)); 194 ± 33 nM in series [5] (strain V1/S (chloroquine resistant)); 212 nM in series [1] (K1, K1 (CQ R) lab line); 147 nM in series [2]; 85.5 nM in series [3]. In addition, the Lag phase in series [4] is on record as 0 h. The “PCT 99.9 %” value in [4] is recorded as 34 h. In [4], the Slope was −0.094.
Turning to `c1cc(C2CCC3(CC2)OOC2(OO3)C3CC4CC(C3)CC2C4)ccc1OCCN1CCOCC1` (stereo not shown) [Compound 4], in series [6], the CLint scaled was 86 mL/min/kg. Moreover, the IC50 in the series on P. falciparum 3D7 came out at 10 ± 1 nM. For the same molecule, the half-life at 1 µM in [7] was 14 h. For the same molecule, the CLint scaled in series [8] was found to be 135 mL/min/kg. Further, in [9], the clearance came out at 7.1 mL/min/kg and the half-life is 1.1 h.
Turning to `c1cc(C2CCC3(CC2)OOC2(OO3)C3CC4CC(C3)CC2C4)ccc1OCCCN1CCOCC1` (stereo not shown) [Compound 5], the CLint scaled in series [6] came out at 75 mL/min/kg; in [8], 147 mL/min/kg. Also, the “In vivo (Pb) MSD (days) at 1 x 30 mg/kg” value in the series on P. berghei is listed as 16 days. Besides, the midpoint of inhibition in the series with P. falciparum 3D7, the IC50, lay at 7.5 ± 0.2 nM. This molecule also gave a half-life at 1 µM in series [7] of 15 h. In series [9], this molecule yielded a clearance of 6.5 mL/min/kg. In [9], this molecule gave a half-life of 1.5 h.
With `CS(=O)(=O)N1CCN(CCOc2ccc(C3CCC4(CC3)OOC3(OO4)C4CC5CC(C4)CC3C5)cc2)CC1` (stereo not shown) [Compound 6], the CLint scaled in [6] came out at 38 mL/min/kg. Besides, the “In vivo (Pb) MSD (days) at 1 x 30 mg/kg” value in the series with P. berghei was 19 days and 19.3 (14, 30,14) days. Also, the IC50 in the series on P. falciparum 3D7 stood at 3.5 ± 0.2 nM. The half-life at 1 µM in [7] is 12 h. In [8], this molecule showed a CLint scaled of 257 mL/min/kg. In [9], this molecule had a clearance of 3.5 mL/min/kg and a half-life of 3.2 h.
Regarding `FC1(F)CCN(CCOc2ccc(C3CCC4(CC3)OOC3(OO4)C4CC5CC(C4)CC3C5)cc2)CC1` (stereo not shown) [Compound 8], the intrinsic metabolic clearance (CLint scaled) in series [6] came out at 60 mL/min/kg; in [8], 107 mL/min/kg. The IC50 with P. falciparum 3D7 was 8.5 ± 0.6 nM. In addition, the half-life at 1 µM in series [7] is 16 h. Also, the clearance in series [9] is 1.3 mL/min/kg. This molecule showed a half-life in series [9] of 2.8 h.
`OC1CCC(c2ccc(OCCN3CCC(F)CC3)cc2)CC1` (stereo not shown) [Compound M-180]: the “Relative Peak Area (expressed as % total metabolite peak area generated over 60 minutes)” value in series [10] is listed as 20%; in [11], 10%; in [12], 9%.
For `O=C1CCC(c2ccc(OCCN3CCC(F)CC3)cc2)CC1` [Compound M-182] the same measures were 27%, 11% and 13%.
Regarding `c1cc(C2CCC3(CC2)OOC2(OO3)C3CC4CC(C3)CC2C4)ccc1CN1CCOCC1` (stereo not shown) [Compound N205], the Degradation half-life was 0.8 h in series [10] (substrate 1 µM); 1.45 h in series [10] (substrate 5 µM); 0.567 h in series [11] (substrate 1 µM, NADPH-dependent); 0.717 h in series [11] (substrate 5 µM); 0.25 h in [12] (substrate 1 µM); 0.333 h in series [12] (substrate 5 µM). Also, the “In vitro CLint” value was found to be 37 µL/min/mg protein in [10] (substrate 1 µM); 20 µL/min/mg protein in [10] (substrate 5 µM); 51 µL/min/mg protein in [11] (substrate 1 µM); 41 µL/min/mg protein in series [11] (substrate 5 µM); 118 µL/min/mg protein in series [12] (substrate 1 µM); 89 µL/min/mg protein in series [12] (substrate 5 µM). Also, the “Microsome-Predicted EH” value in [10] (substrate 1 µM) is 0.44; in series [10] (substrate 5 µM), 0.30; in [11] (substrate 1 µM), 0.67; in [11] (substrate 5 µM) it was 0.62; in series [12] (substrate 1 µM), 0.75; in [12] (substrate 5 µM), 0.69.
As for `[O-][N+]1(CCOc2ccc(C3CCC4(CC3)OOC3(OO4)C4CC5CC(C4)CC3C5)cc2)CCC(F)CC1` (stereo not shown) [M+16 (IV)], the “Relative Peak Area (expressed as % total metabolite peak area generated over 60 minutes)” value was 9% in [10], 4% in series [11] and 50% in series [12].
Take `OC(c1cc(C(F)(F)F)nc2c(C(F)(F)F)cccc12)C1CCCCN1` (stereo not shown) [Mefloquine, mefloquine]: the IC50 in series [1] (K1, FC27 (CQ S) lab line) was found to be 56.2 nM; in series [2], 18 nM; in series [3] it was 12.7 nM.
As for `CS(=O)(=O)O.c1cc(C2CCC3(CC2)OOC2(OO3)C3CC4CC(C3)CC2C4)ccc1CN1CCOCC1` (stereo not shown) [N205 mesylate], the Solubility in series [13] (0.01 N HCl, media pH 2.0, 37°C, 1 h) is 250 µg/mL; in series [13] (0.01 N HCl, media pH 2.0, 37°C, 4 h), 172 µg/mL; in series [13] (0.01 N HCl, media pH 2.0, 37°C, 6 h), 155 µg/mL; in series [13] (0.1 N HCl, media pH 1.0, 37°C, 1 h), 21.2 µg/mL; in [13] (0.1 N HCl, media pH 1.0, 37°C, 4 h), 17.2 µg/mL; in series [13] (0.1 N HCl, media pH 1.0, 37°C, 6 h) it was 16.0 µg/mL. For the same molecule, the Solubility in series [13] (FaSSIF blank, 37°C, 1 h) is reported as under 0.1 µg/mL; in [13] (FaSSIF blank, 37°C, 4 h), under 0.1 µg/mL; in [13] (FaSSIF blank, 37°C, 6 h), under 0.1 µg/mL; in series [13] (FaSSIF, media pH 6.5, 37°C, 1 h), 24.0 µg/mL; in [13] (FaSSIF, media pH 6.5, 37°C, 4 h) it was 18.1 µg/mL; in series [13] (FaSSIF, media pH 6.5, 37°C, 6 h), 26.7 µg/mL. The Solubility in [13] (FeSSIF blank, 37°C, 1 h) came to 2.3 µg/mL; in series [13] (FeSSIF blank, 37°C, 4 h) it was 0.9 µg/mL; in series [13] (FeSSIF blank, 37°C, 6 h), 1.2 µg/mL; in series [13] (FeSSIF, media pH 5.0, 37°C, 1 h), 1089 µg/mL; in series [13] (FeSSIF, media pH 5.0, 37°C, 4 h) it was 755 µg/mL; in [13] (FeSSIF, media pH 5.0, 37°C, 6 h), 783 µg/mL. In addition, the Solubility is under 0.1 µg/mL in [13] (Phosphate buffer, media pH 7.4, 37°C, 1 h); under 0.1 µg/mL in [13] (Phosphate buffer, media pH 7.4, 37°C, 4 h); under 0.1 µg/mL in series [13] (Phosphate buffer, media pH 7.4, 37°C, 6 h).
Consider `Clc1ccc2c(N3CCN(CCCN4CCN(c5ccnc6cc(Cl)ccc56)CC4)CC3)ccnc2c1` [Piperaquine, piperaquine], for which the IC50 in series [1] (K1, FC27 (CQ S) lab line) turned out to be 54.6 nM; in [1] (K1, K1 (CQ R) lab line) it was 75.5 nM; in [2] it was 33.8 nM; in [3], 35.6 nM.
Consider `CCc1nc(N)nc(N)c1-c1ccc(Cl)cc1` [Pyrimethamine, pyrimethamine], for which, in series [4] (setting [14]), the Lag phase is listed as 24 h, the “Log PRR” value was 3.7, the “PCT 99.9 %” value is reported as 57 h and the Slope is on record as −0.077.
